Measured values from patent publication US6924285B2, “Bicyclic heterocyclic compounds, pharmaceutical compositions containing these compounds, their use and process for preparing them” (Boehringer Ingelheim Pharma GmbH & Co., priority 2002, dated 2005).

Assays:
[1] = molecular target: T1, human EGF-receptor kinase (Homo sapiens, UniProt P00533); assay: Inhibition of human EGF-receptor kinase (enzyme assay, ELISA read-out); type: biochemical; settings: cytoplasmic tyrosine kinase domain as GST fusion protein, substrate pEY/bio-pEY, 30 minutes at ambient temperature
T1 construct: GST; made in house; host or cells: Sf9 insect cells (baculovirus)
Protocol: The inhibition of human EGF-receptor kinase was determined using the cytoplasmic tyrosine kinase domain (methionine 664 to alanine 1186 based on the sequence published in Nature 309 (1984), 418). For this the protein was expressed in Sf9 insect cells as GST fusion protein using the Baculovirus expression system.
The enzyme activity was measured in the presence or absence of the test compounds in serial dilutions. The polymer pEY (4:1) obtained from SIGMA was used as the substrate. Biotinylated pEY (bio-pEY) was added as the tracer substrate. 100 μl of reaction solution contained 10 μl of the inhibitor in 50% DMSO, 20 μl of the substrate solution (200 mM HEPES pH 7.4, 50 mM magnesium acetate, 2.5 mg/ml poly(EY), 5 μg/ml bio-pEY) and 20 μl of enzyme preparation. The enzyme reaction was started by the addition of 50 μl of a 100 μM ATP solution in 10 mM of magnesium chloride. The dilution of the enzyme preparation was adjusted so that the incorporation of phosphate in the bio-pEY was linear in terms of time and quantity of enzyme. The enzyme preparation was diluted in 20 mM HEPES pH 7.4, 1 mM EDTA, 130 mM common salt, 0.05% Triton X-100, 1 mM DTT and 10% glycerol.
The enzyme assays were carried out at ambient temperature over a period of 30 minutes and ended by the addition of 50 μl of a stopping solution (250 mM EDTA in 20 mM HEPES pH 7.4). 100 μl were placed on a streptavidine-coated microtitre plate and incubated for 60 minutes at ambient temperature. Then the plate was washed with 200 μl of a wash solution (50 mM Tris, 0.05% Tween 20). After the addition of 100 μl of an HRPO-labelled anti-PY antibody (PY20H Anti-PTyr:HRP made by Transduction Laboratories, 250 ng/ml) the preparation was incubated for 60 minutes. Then the microtitre plate was washed three times with 200 μl of wash solution. The samples were then combined with 100 μl of a TMB-peroxidase solution (A:B=1:1, Kirkegaard Perry Laboratories). After 10 minutes the reaction was stopped. The extinction was measured at OD450 nm with an ELISA reader. All the results were measured three times.
The data were adapted by iterative calculation using an analytical pogramme for sigmoidal curves (Graph Pad Prism Version 3.0) with a variable Hill pitch. […] The active substance concentration which inhibits the activity of EGF receptor kinase by 50% (IC50) was derived from the curves.

T1 sequence (P00533 688-1210): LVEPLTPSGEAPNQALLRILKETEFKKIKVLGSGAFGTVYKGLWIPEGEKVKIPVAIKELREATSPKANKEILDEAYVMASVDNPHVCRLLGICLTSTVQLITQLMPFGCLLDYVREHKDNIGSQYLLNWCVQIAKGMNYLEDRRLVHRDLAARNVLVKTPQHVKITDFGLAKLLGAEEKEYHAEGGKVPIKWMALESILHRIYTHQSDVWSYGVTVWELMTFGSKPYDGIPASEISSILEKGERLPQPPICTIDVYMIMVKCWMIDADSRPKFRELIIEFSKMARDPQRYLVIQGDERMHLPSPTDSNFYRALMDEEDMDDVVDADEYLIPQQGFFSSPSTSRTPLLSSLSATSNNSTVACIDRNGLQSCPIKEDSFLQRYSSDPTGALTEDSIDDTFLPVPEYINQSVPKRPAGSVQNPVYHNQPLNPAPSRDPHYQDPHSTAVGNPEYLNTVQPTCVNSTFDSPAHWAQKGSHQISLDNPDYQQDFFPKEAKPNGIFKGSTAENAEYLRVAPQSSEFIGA

IC50 [1]: 0.9 nM | melting point: 234 °C
Compound: COc1cc2ncnc(Nc3ccc(F)c(Cl)c3)c2cc1O[C@H]1CC[C@@H](NS(C)(=O)=O)CC1 [Example 3, 4-[(3-chloro-4-fluoro-phenyl)amino]-6-(cis-4-methanesulphonylamino-cyclohexan-1-yloxy)-7-methoxy-quinazoline]
